Assay results taken from the supplement of paper PMC4862054.

Key:
Assay in all cases: normalised viability (% of control), CellTiter-Blue; higher = more viable cells (about 100 = DMSO control)
Conditions in all cases: incubation time: 72 h
BT-549 = system: BT-549
Procedure, shortened: (§1)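 Compound dissolved in 5 µl medium was pre-loaded into 384-well plates, and breast cancer cell lines in 20 µl suspension were seeded on top and incubated 72 h. After adding 2.5 µl CellTiter-Blue reagent for 2 h at 37 °C, fluorescence was read at 560/590 nm. Plates were normalised to vehicle (100) and a positive kill control (0), with Z'-factor quality control. Each value is normalised viability at a single listed concentration from the series.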

CAL-148 = system: CAL-148
Procedure, shortened: as §1

CAL-85-1 = system: CAL-85-1
Procedure, shortened: as §1

DU-4475 = system: DU-4475
Procedure, shortened: as §1

MDA-MB-453 = system: MDA-MB-453
Procedure, shortened: as §1

MFM-223 = system: MFM-223
Procedure, shortened: as §1

C=CC[C@@H]1/C=C(\C)C[C@H](C)C[C@H](OC)[C@H]2O[C@@](O)(C(=O)C(=O)N3CCCC[C@H]3C(=O)O[C@H](/C(C)=C/[C@@H]3CC[C@@H](O)[C@H](OC)C3)[C@H](C)[C@@H](O)CC1=O)[C@H](C)C[C@@H]2OC [Tacrolimus]
normalised viability (BT-549; 10 nM): 89.5% | normalised viability (BT-549; 1000 nM): 103% | normalised viability (BT-549; 10000 nM): 89.8% | normalised viability (CAL-148; 3 nM): 97.3% | normalised viability (CAL-148; 30 nM): 101% | normalised viability (CAL-148; 100 nM): 101% | normalised viability (CAL-85-1; 3 nM): 104% | normalised viability (CAL-85-1; 30 nM): 92.1% | normalised viability (CAL-85-1; 100 nM): 98.5% | normalised viability (DU-4475; 3 nM): 99.8% | normalised viability (DU-4475; 30 nM): 90.9% | normalised viability (DU-4475; 100 nM): 99.5% | normalised viability (MDA-MB-453; 3 nM): 112% | normalised viability (MDA-MB-453; 30 nM): 96.8% | normalised viability (MDA-MB-453; 100 nM): 103% | normalised viability (MFM-223; 10 nM): 112% | normalised viability (MFM-223; 1000 nM): 109% | normalised viability (MFM-223; 10000 nM): 87.6%

OC[C@H]1O[C@@H](n2cnc3c2N=CNC[C@H]3O)C[C@@H]1O [Pentostatin]
normalised viability (BT-549; 10 nM): 100% | normalised viability (BT-549; 1000 nM): 98.1% | normalised viability (BT-549; 10000 nM): 85.3% | normalised viability (CAL-148; 3 nM): 116% | normalised viability (CAL-148; 30 nM): 115% | normalised viability (CAL-148; 100 nM): 110% | normalised viability (CAL-85-1; 3 nM): 106% | normalised viability (CAL-85-1; 30 nM): 96.2% | normalised viability (CAL-85-1; 100 nM): 104% | normalised viability (DU-4475; 3 nM): 93.4% | normalised viability (DU-4475; 30 nM): 92.7% | normalised viability (DU-4475; 100 nM): 95% | normalised viability (MDA-MB-453; 3 nM): 105% | normalised viability (MDA-MB-453; 30 nM): 97.7% | normalised viability (MDA-MB-453; 100 nM): 94.8% | normalised viability (MFM-223; 10 nM): 93.5% | normalised viability (MFM-223; 1000 nM): 93% | normalised viability (MFM-223; 10000 nM): 98.1%

CC[C@]1(O)C[C@@H]2CN(CCc3c([nH]c4ccccc34)[C@@](C(=O)OC)(c3cc4c(cc3OC)N(C)[C@H]3[C@@](O)(C(=O)OC)[C@H](OC(C)=O)[C@]5(CC)C=CCN6CC[C@]43[C@@H]65)C2)C1 [Vinblastine]
normalised viability (BT-549; 1 nM): 90.7% | normalised viability (BT-549; 100 nM): 19.4% | normalised viability (BT-549; 1000 nM): 17% | normalised viability (CAL-148; 0.3 nM): 76.8% | normalised viability (CAL-148; 3 nM): 78.8% | normalised viability (CAL-148; 10 nM): 79% | normalised viability (CAL-85-1; 0.3 nM): 89.9% | normalised viability (CAL-85-1; 3 nM): 94.9% | normalised viability (CAL-85-1; 10 nM): 48.3% | normalised viability (DU-4475; 0.3 nM): 105% | normalised viability (DU-4475; 3 nM): 96.5% | normalised viability (DU-4475; 10 nM): 82.9% | normalised viability (MDA-MB-453; 0.3 nM): 115% | normalised viability (MDA-MB-453; 3 nM): 99.8% | normalised viability (MDA-MB-453; 10 nM): 36.8% | normalised viability (MFM-223; 1 nM): 96.7% | normalised viability (MFM-223; 100 nM): 43.9% | normalised viability (MFM-223; 1000 nM): 24.9%

Cc1ccc(F)c(NC(=O)Nc2ccc(-c3cccc4[nH]nc(N)c34)cc2)c1 [Linifanib]
normalised viability (BT-549; 1 nM): 91.5% | normalised viability (BT-549; 100 nM): 96% | normalised viability (BT-549; 1000 nM): 97.5% | normalised viability (CAL-148; 0.3 nM): 93% | normalised viability (CAL-148; 3 nM): 96.3% | normalised viability (CAL-148; 10 nM): 94.4% | normalised viability (CAL-85-1; 0.3 nM): 93.9% | normalised viability (CAL-85-1; 3 nM): 87.9% | normalised viability (CAL-85-1; 10 nM): 98.8% | normalised viability (DU-4475; 0.3 nM): 103% | normalised viability (DU-4475; 3 nM): 93.6% | normalised viability (DU-4475; 10 nM): 108% | normalised viability (MDA-MB-453; 0.3 nM): 111% | normalised viability (MDA-MB-453; 3 nM): 111% | normalised viability (MDA-MB-453; 10 nM): 104% | normalised viability (MFM-223; 1 nM): 101% | normalised viability (MFM-223; 100 nM): 96.6% | normalised viability (MFM-223; 1000 nM): 98.4%
